Results: patent US4161598A, “1-Oxygenated-2,6-methano-3-benzazocines” (Sterling Drug Inc., priority 1977, dated 1979)
Like-named read-outs stand apart in the source and are kept apart here.

What was measured:
[1] = tested on: meperidine; assay: meperidine antagonist activity in the rat; details: as the free base
[2] = tested on: morphine; assay: morphine antagonist activity in the rat; details: as the free base
[3] = Ziering reference; all tests other than writhing; cited from earlier work
[4] = tested on: bradykinin; assay: Anti-bradykinin Test; format: in vivo, Rats; details: Rattus norvegicus, 2 h
Experimental: This is a secondary evaluation of analgesic activity. […] The threshold dose of bradykinin required for production of the response is determined for each animal, and is readministered at fixed intervals during a two-hour period following the subcutaneous or oral administration of test compounds. In the control response marked rotation of the head and flexion of the forepaw are each scored +2, for a total response score (TRS) of +4. For post-medication scoring any decrease in head rotation or paw flexion from control is each scored +1, rather than +2, while no movement of either the head or paw is each scored 0. Therefore, the TRS following any bradykinin challenge can vary from 0 to 4. Animals whose TRSs are 0-0, 0-+1 or +1-0 after any two consecutive bradykinin challenges during the two-hour post-medication period are scored protected. […] ED50 values of active compounds are estimated by probit analysis of quantal scores from 4 or more dosage levels using 5 animals per dose. In addition the average TRSs obtained at each test interval with each treatment are plotted to permit examination of time-effect relationships and to provide a rough expression of drug effect using graded data. A vehicle-pretreated control animal is tested daily. Synthetic bradykinin from Sandoz Pharmaceuticals is diluted with saline to the proper concentrations for determination of threshold doses for producing the response. All bradykinin injections are made at a constant volume of 0.2 ml. per rat.

[5] = tested on: ethylenediaminetetraacetic acid (EDTA); assay: EDTA Antinociceptive Test; format: in vivo, guinea pig; details: Cavia porcellus, sc, 0.5 h; subcutaneous; reduces response score to 6 or less
Experimental: This is also a secondary evaluation of analgesic activity. The test animal is the guinea pig. A threshold intradermal dose of ethylenediaminetetraacetic acid (EDTA) which can reproducibly elicit a cumulative response score of 12-18 discrete episodes of jumping, rearing, running, vocalization and biting or scratching at the site of injection within 40 seconds after challenge is determined for each animal. Thirty minutes after the administration of saline or test compound to 6-7 animals per dose, each animal is again challenged with its own threshold dose of EDTA. An effective drug dose is considered to be one which reduces the response score to 6 or less.

[6] = tested on: narcotics; assay: Tail-flick Antagonist Test, narcotic not specified
[7] = tested on: thermal stimulus applied to the tail; assay: Tail-flick Agonist Test; format: in vivo, Rats; details: for ED50: Rattus norvegicus, sc, 0.5 h; for activity as agonist: tail-flick test, result in words
Experimental: Rats normally respond to a thermal stimulus applied to the tail by flicking their tails out from under the heat source. The intensity of the stimulus utilized is one which produces control response-times (CRT) of 2-4 seconds. Experimental response-times (ERT) are determined 30 minutes after subcutaneous injections and 60 minutes after oral medications. […] Therefore, the maximum possible increase (MPI) in response-time for any given animal is 20 minus the CRT. The average percent effect, or percent of the maximum possible increase (%MPI) obtained after any given test compound treatment is calculated by the formula [formula] […] ED50 or ED80 values of active compounds are obtained by the Miller and Tainter [Proc. Soc. Exptl.

[8] = tested on: analgesic activity; assay: Analgesic activity, summary of the foregoing tests in experimental animals; format: in vivo; details: summary of the foregoing test results
Experimental: As stated above the compounds of Formula I are useful as analgesics and mostly also useful as narcotic antagonists as shown by tests in experimental animals. As presumptive tests of analgesia the anti-acetylcholine writhing, anti-phenylquinone writhing, anti-bradykinin and EDTA anti-nociceptive tests are carried out as follows: […]

[9] = tested on: phenazocine; assay: Tail-flick Antagonist Test against phenazocine; details: Rattus norvegicus
[10] = tested on: morphine; assay: Tail-flick Antagonist Test against morphine; details: Rattus norvegicus
[11] = tested on: phenyl-p-quinone (phenylquinone); assay: Anti-phenylquinone Writhing Test; format: in vivo, mice; details: Mus musculus
Experimental: This test is used to confirm the anti-acetylcholine writhing test. The ability of compounds to prevent phenyl-p-quinone (phenylquinone)-induced writhing in mice is determined in this test. […] Animals are pretreated with test compounds (15 minutes for subcutaneous route, 30 minutes for oral route) and observed for three one-minute intervals during the 5-12 minutes following administration. Mice responsing fewer than three times during the three one-minute observation periods are scored protected while those responding three or more times are scored not protected. Test compounds are screened using 10-14 animals per treatment, usually at doses of 75-100 mg./kg. subcutaneously or 150-200 mg./kg. orally. […] ED50 values for active compounds are estimated by probit analysis of quantal scores for 3-5 dosage levels using 14-30 animals per dose. Vehicle-pretreated control animals are tested daily.

[12] = tested on: acetylcholine; assay: Anti-acetylcholine Writhing Test; format: in vivo, mice; details: Mus musculus, 20 min
Experimental: This response has also been called writhing. Animals are pretreated with test compounds (20 minutes for both subcutaneous and oral routes) and observed for two minutes immediately following the administration of acetylcholine. Mice not responding during the two-minute observation period are scored protected while those responding one or more times are scored not protected. Test compounds are screened at doses of 75 and 25 mg./kg. subcutaneously or 150 and 50 mg./kg. orally. […] ED50 values for active compounds are estimated by probit analysis of quantal scores for 4 or more dosage levels using 15 animals per dose. Vehicle-pretreated control animals are tested concurrently with each run of 15 experimental animals.

[13] = tested on: meperidine; assay: Tail-flick Antagonist Test against meperidine; details: Rattus norvegicus
[14] = po, read-out: ED50 (95% Confidence Limits), Oral
[15] = sc, read-out: ED50 (95% Confidence Limits), Subcutaneous
[16] = summary of the foregoing test results
[17] = subcutaneous, 120 Mg./Kg. of Base
[18] = po, 0.5 h, read-out: ED50 (95% Confidence Limits), Oral
[19] = sc, 0.25 h, read-out: ED50 (95% Confidence Limits), Subcutaneous
[20] = po, oral, read-out: ED50 (95% Confidence Limits), Oral
[21] = sc, subcutaneous, base, read-out: Subcutaneous ED50 (95% Confidence Limits)
[22] = sc, subcutaneous, free base or acid addition salt, read-out: ED50 (95% Confidence Limits), Subcutaneous
[23] = tail-flick antagonist test, result in words
[24] = subcutaneously, unit inferred, read-out: agonist ED50
[25] = sc, subcutaneous, form tested not given, read-out: Subcutaneous ED50 (95% Confidence Limits)

## COc1ccc2c(c1)[C@]1(C)CCN(C)[C@H](C2=O)[C@@H]1C (relative stereo) [Compound 12]
[1]
  activity against meperidine: weakly active
[2]
  activity against morphine: inactive

## COc1ccc2c(c1)[C@]1(C)CCN(C)[C@@H]([C@@H]1C)[C@@]2(O)c1ccccc1 (relative stereo) [Compound 13]
[3]
  activity in all other tests: inactive

## COc1ccc2c(c1)[C@]1(C)CCN(C)[C@@H]([C@@H]1C)[C@]2(C)O (relative stereo) [Compound 14]
[3]
  activity in all other tests: inactive

## C[C@H]1[C@H]2C(=O)c3ccc(O)cc3[C@]1(C)CCN2CC1CC1 (relative stereo) [Example 1, 1,2,3,4,5,6-hexahydro-1-oxo-3-cyclopropylmethyl-8-hydroxy-6(eq),11(ax)-dimethyl-2,6-methano-3-benzazocine]
[4]; [14]
  ED50: 10 mg/kg
[4]; [15]
  ED50: 0.069 mg/kg
[5]
  minimal effective dose: 0.03 mg/kg
[6]; [16]
  narcotic antagonist activity: weak narcotic antagonist activity
[7]; oral, 200 Mg./Kg. of Base
  Percent Inhibition of Response, Oral: 11.2%
  dead: 1/6
  righting reflex: partial loss
  salivation: slight
[7]; [17]
  Percent Inhibition of Response, Subcutaneous: 2.3%
  activity (observed side effect): decreased
  observed side effect: atoxia
[8]
  analgesic activity: strong analgesic activity
[9]; po, 20 min, read-out: AD50 (95% Confidence Limits) Against Phenazocine, Oral
  ED50: 63 mg/kg
[9]; sc, 10 min, read-out: AD50 (95% Confidence Limits) Against Phenazocine, Subcutaneous
  ED50: 5 mg/kg
[9]; sc, 10 min, read-out: Subcutaneous AD50 (95% Confidence Limits) Against Phenazocine
  ED50: 4.3 mg/kg
[10]; po, 20 min, read-out: AD50 (95% Confidence Limits) Against Morphine, Oral
  ED50: 91 mg/kg
[10]; sc, 10 min, read-out: AD50 (95% Confidence Limits) Against Morphine, Subcutaneous
  ED50: 4.9 mg/kg
[10]; sc, 10 min, read-out: Subcutaneous AD50 (95% Confidence Limits) Against Morphine
  ED50: 4 mg/kg
[11]; [18]
  ED50: 15.2 mg/kg
[11]; [19]
  ED50: 0.16 mg/kg
[12]; [20]
  ED50: 12 mg/kg
[12]; [21]
  ED50: 0.12 mg/kg
[12]; [22]
  ED50: 0.16 mg/kg
[12]; sc, subcutaneous, hydrochloride salt, read-out: Subcutaneous ED50 (95% Confidence Limits)
  ED50: 0.16 mg/kg
[12]; sc, subcutaneous, methanesulfonate salt, read-out: Subcutaneous ED50 (95% Confidence Limits)
  ED50: 0.16 mg/kg
[13]; po, 20 min, read-out: AD50 (95% Confidence Limits) Against Meperidine, Oral
  ED50: 78 mg/kg
[13]; sc, 10 min, read-out: AD50 (95% Confidence Limits) Against Meperidine, Subcutaneous
  ED50: 7.2 mg/kg
[13]; sc, 10 min, read-out: Subcutaneous AD50 (95% Confidence Limits) Against Meperidine
  ED50: 2 mg/kg

## CC[C@]12CCN(CC3CC3)[C@H](C(=O)c3ccc(O)cc31)[C@@H]2C (relative stereo) [Example 29, 1,2,3,4,5,6-hexahydro-1-oxo-3-cyclopropylmethyl-8-hydroxy-6(eq)-ethyl-11(ax)-methyl-2,6-methano-3-benzazocine]
[4]; [14]
  ED50: 11 mg/kg
[4]; [15]
  ED50: 0.053 mg/kg
[5]
  minimal effective dose: 0.025 mg/kg
[6]; [16]
  narcotic antagonist activity: weak narcotic antagonist activity
[6]; [23]
  narcotic antagonist activity: Inactive
[7]; read-out: Tail-flick Agonist Subcutaneous ED50
  ED50: 9 ± 10 mg/kg
[7]; subcutaneously, read-out: agonist ED50
  ED50: 9 ± 10 mg/kg
[7]; [16]
  narcotic activity: no narcotic activity
[7]
  activity as agonist: active
[8]
  analgesic activity: strong analgesic activity
[11]; [18]
  ED50: 9.1 mg/kg
[11]; [19]
  ED50: 0.03 mg/kg
[12]; [20]
  ED50: 7.6 mg/kg
[12]; [21]
  ED50: 0.045 mg/kg
[12]; [22]
  ED50: 0.074 mg/kg

## C[C@H]1[C@H]2C(=O)c3ccc(O)cc3[C@]1(C)CCN2CCc1ccccc1 (relative stereo) [Example 34, 1,2,3,4,5,6-hexahydro-1-oxo-3-(2-phenylethyl)-8-hydroxy-6(eq),11(ax)-dimethyl-2,6-methano-3-benzazocine]
[6]; [23]
  narcotic antagonist activity: inactive
[7]; [24]
  ED50: 56 ± 9.1 mg/kg
[7]
  activity as agonist: weakly active
[12]; [25]
  ED50: 4.2 mg/kg

## C[C@H]1[C@H]2C(=O)c3ccc(O)cc3[C@]1(C)CCN2CC1CCC1 (relative stereo) [Example 35B, 1,2,3,4,5,6-hexahydro-1-oxo-3-cyclobutylmethyl-8-hydroxy-6(eq),11(ax)-dimethyl-2,6-methano-3-benzazocine]
[6]; [23]
  narcotic antagonist activity: inactive
[7]; [24]
  ED50: 200 ± 49 mg/kg
[7]
  activity as agonist: weakly active
[12]; [25]
  ED50: 3.9 mg/kg
